Turning to `CC(=O)Nc1ccc(C(=O)C2CCNCC2)cc1`, the melting point (usually the temperature, or range, at which the solid turns liquid) is 171 to 173 °C.

On to `CSc1sc(C(=O)O)c(-c2ccc(Cl)cc2)c1C#N`, for which the melting point was 241 to 243 °C. The figure for `O=C(O)/C(=C/c1ccc([N+](=O)[O-])cc1)c1ccccc1C(=O)O` is 223 °C. The figure for `CC(C)OC(=O)C1=C2c3ncccc3ON2C(Cl)C(Cl)C1Cl` (configuration not stated) is 98 °C. Consider `NC(=S)Nc1ccc(Cl)c(Cl)c1`, for which the melting point was 210 to 213 °C.

Regarding `Cc1ccccc1C(C)(C)C`, the melting point is -50 °C. On to `O=C(O)Cn1c(C(F)(F)F)nc2ccccc21`, for which the melting point stood at 248 °C. The figure for `Cc1cccc(C)c1NC(=O)C=CC(=O)O` is 169 °C. The figure for `Cc1nc2ccc(C(=O)O)cc2nc1C` is 230 °C; for `OCc1cc(Cl)ccc1O` it is 90 to 91 °C.

The compound `N#CC(=CN)S(=O)(=O)c1ccc(Cl)cc1` returned a melting point of 213 to 214 °C.

In turn, `CCCCOc1ccc(N=Nc2ccc(N)nc2N)cn1` returned a melting point of 129 °C. The figure for `COc1cc(CC2c3cc(OC)c(OC)cc3CCN2C)c(Oc2cc3c(cc2OC)-c2c(OC)c(OC)cc4c2C(C3)N(C)CC4)cc1OC` (configuration not stated) is 160 °C; for `OCc1cccc(CN2CCCCC2)c1` it is 67 to 69 °C; for `COC(=O)c1occc1C` it is 35 °C. The result for `NC(=S)c1ccc[nH]1` reads 161 to 163 °C; that for `CCC(C)c1cc([N+](=O)[O-])cc([N+](=O)[O-])c1OC(=O)OC(C)C` (configuration not stated), 61.5 °C. The figure for `O=[N+]([O-])c1ccc2c(c1)=NC(c1cccc(C3N=c4cc([N+](=O)[O-])ccc4=C3O)c1)C=2O` (configuration not stated) is 266 °C; for `Cc1cccc(Br)c1[N+](=O)[O-]` it is 26 to 30 °C; for `C=CCn1c(S)nnc1CNC(=O)OC(C)(C)C` it is 150 to 153 °C. Regarding `COc1cc([N+](=O)[O-])ccc1O`, the melting point fell in the range of 99 to 104 °C. The result for `CC(C)CCCC(C)C1CCC2(C)C1(C)CCC13OC21CCC1C(C)C(O)CCC13C` (configuration not stated) reads 161 to 163 °C; that for `CCCOC(=O)C1=C(C)NC(C)=C(C(=O)OCCC)C1c1cccc(OC)c1O`, 166 to 168 °C. The result for `C(#CP(c1ccccc1)c1ccccc1)P(c1ccccc1)c1ccccc1` reads 86 °C.

Compound `Cn1nnc2cc(C(=O)O)ccc21` gave a melting point of 250 °C. The result for `Cc1c(Br)cc(N)c(N)c1C` reads 70 to 74 °C; that for `Cc1c(C)c(C)c2c(c1C)CC1(OC2=O)C(=O)c2ccccc2C1=O`, 257 °C; that for `CC(C)(C)c1ccc(C2CCC3(CC2)Cc2ccc(C(=O)n4cc(CCCC(=O)O)c5ccccc54)cc2C3)cc1` (configuration not stated), 120 to 150 °C. In the case of `CC(=O)OC1CCC2(C)C(CCC3C4CC=C(C#Cc5ccccc5)C4(C)CCC32)C1` (configuration not stated), the melting point lay within 152 to 153 °C. The result for `OC1(c2ccc(Cl)cc2)CCNCC1` reads 139 to 141 °C; that for `CC(=O)NC(=O)c1ccccc1O`, 148 °C.

`O=C1NC(=O)C2(CCc3ccccc3C2)N1` (configuration not stated) yielded a melting point of 268 °C. The figure for `CC(=O)n1c(C)cc2cc3c(cc21)=NC(C)C=3` (configuration not stated) is 279 °C; for `N#CCc1ccc(Cl)c(Cl)c1` it is 40 °C; for `Cc1noc(-c2ccc(C(=O)O)cc2)n1` it is 267 to 269 °C. The result for `NC(=S)Nc1ccc(Oc2ccccc2)cc1` reads 175 to 177 °C. The figure for `COc1cc2c(cc1O)C=NCC2` is 187 to 191 °C. As for `CN1C(=O)C(=NNc2cccc(Cl)c2)C(=O)N(C)C1=O`, the melting point was 202 °C. Take `Cc1ccc2c3c(c4c(c2c1)CCCC4)CCCC3`: the melting point is 93 °C. The result for `c1ccc(C2=NN(c3ccccc3)CN2c2ccccc2)cc1` reads 150 °C.

The compound `CC(=O)CCc1ccc(CCC(C)=O)c([N+](=O)[O-])c1` returned a melting point of 58 °C. The figure for `O=C(CCl)C(Cl)(Cl)Cl` is 65 °C.

Compound `CON1C(=O)C(=O)N(OC)C2CCCCC21` (configuration not stated) registered a melting point of 128 to 131 °C. The result for `N#CCc1nc(-c2ccc(Cl)c(Cl)c2)cs1` reads 106 to 107 °C; that for `CCCCCCC(C)CCC` (configuration not stated), -77.5 °C. With `CCCCC(=O)OCCC`, the melting point was -70.7 °C. The figure for `COC(=O)c1cc(O)c(O)c(O)c1` is 262 °C; for `COc1cc2c(c(O)c1OC)CCN(C)C2C` (configuration not stated) it is 152 °C. With `CCN(CC)C(=O)SCc1ccc(Cl)cc1`, the melting point came out at 3.3 °C. The figure for `Cc1ccc(C=C2C(N)=NC(=O)N=C2N)cc1` is 172 to 173 °C. The result for `O=c1c(O)c(-c2ccc(O)cc2O)oc2cc(O)cc(O)c12` reads 304 °C. The figure for `Cc1[nH]c2ccc([N+](=O)[O-])cc2c1C` is 189 °C.

On to `C[Si](C)(C)C1=CC2(CCCCC2)CC1=O`, for which the melting point was 56 °C. In turn, `FC(F)(Br)C(F)(F)Br` displayed a melting point of -110 °C.

Turning to `CC1(C)C(Br)=C(Br)C(=O)C1Br` (configuration not stated), the melting point is 87 °C. The result for `O=S(=O)(Cl)Cc1ccc(C(F)(F)F)cc1` reads 104 to 106 °C; that for `Cc1ccc(-c2onc(C(=O)c3ccc([N+](=O)[O-])cc3)c2S(=O)(=O)c2ccccc2)cc1`, 225 to 227 °C. In turn, `c1c2c(cc3c1CCCN3)NCCC2` showed a melting point of 113 °C.

Turning to `Cc1n[nH]c(C)c1CCBr`, the melting point is 118 to 120 °C. For `CC(C)COC(=O)c1ccccc1C(=O)OCC(C)C`, the melting point was -64 °C. `O=C(O)CCC(=O)OOC(=O)CCC(=O)O` came in with a melting point of 127 °C. The figure for `CCOC(=O)C(C)=P(c1ccccc1)(c1ccccc1)c1ccccc1` is 157 to 159 °C; for `CC1CCCS1` (configuration not stated) it is -101 °C. Consider `O=CN(C=O)N(C=O)C=O`, for which the melting point was in the range of 180 to 183 °C. The result for `Cc1cc(C)c(C[S+]([O-])Cc2c(C)cc(C)cc2C)c(C)c1` reads 210 °C; that for `CCOC(=O)Cc1ccc(N)cc1`, 48 to 50 °C. The figure for `CC(=O)c1ccc(-c2ccccc2[N+](=O)[O-])o1` is 79 °C. `C/C(=C\C=C\c1ccccc1)C(=O)O` had a melting point of 159 °C. In the case of `Nc1cc(CCNC(=O)c2ccccc2)ccc1CCNC(=O)c1ccccc1`, the melting point came out at 210 °C.

`CCCCCCCCCCCCCCCCCCCCc1ccccc1` gave a melting point of 44 °C.

As for `Cc1nc(-c2ccccc2)c(C(=O)O)s1`, the melting point was in the range of 201 to 203 °C. Compound `CC(=O)c1c(O)cccc1OCCC(C)C` showed a melting point of 25 to 27 °C. The figure for `CC(C)(C)OC(=O)N1CCN(C(=O)OCC2c3ccccc3-c3ccccc32)CC1C(=O)O` (configuration not stated) is 156 to 158 °C; for `CC(=O)NC(=O)COC(=O)c1ccccc1` it is 104 °C.

Turning to `O=C1OC(=O)C2CC12` (configuration not stated), the melting point lay within 54 to 60 °C.

In the case of `COC(=O)c1cc(C(=O)O)cc([N+](=O)[O-])c1`, the melting point came to 183 °C. The result for `C=Cc1ccccc1C(=O)O` reads 94 °C; that for `COc1cc(OC)nc(NC(=O)NS(=O)(=O)N(C)S(C)(=O)=O)n1`, 179 °C; that for `CN1CSCSC1`, 65 °C. The figure for `CC1CCOS(=O)O1` (configuration not stated) is 5 °C. `NNCc1ccccc1` yielded a melting point of 26 °C. Turning to `O=Cc1c(Br)sc2ccc(Cl)cc12`, the melting point was in the range of 139 to 140 °C.

In the case of `O=c1on(-c2ccccc2)cc1-c1ccccc1`, the melting point was found to be 175 °C. The result for `CCC1C(C=NO)=NC(C)(C)N1O` (configuration not stated) reads 163 to 164 °C; that for `O=C(O)[C@H]1NCC[C@@H]1O`, 235 °C. The figure for `CCN(CC)S(=O)(=O)c1ccc(C(=O)O)cc1` is 193 °C; for `COc1ccc(-c2ccccc2)cc1N` it is 81 to 84 °C; for `CC1(C)CC(=O)C=C(C(=O)O)O1` it is 167 to 171 °C. In turn, `CC(C)(C)OC(=O)N1CCN(Cc2ccc(C(=O)O)cc2)CC1` registered a melting point of 196 to 204 °C.

The compound `CCOC(=O)c1c(Cl)c(Cl)c(Cl)c(Cl)c1C(=O)O` yielded a melting point of 94.5 °C.

`O=[N+]([O-])c1cc(C(F)(F)F)ccc1N1CCCCC1` returned a melting point of 48 to 50 °C. Turning to `CCCOC(=O)C(=O)OCCC`, the melting point was -44.3 °C. The figure for `O=C1CCC2(c3ccccc3)OCC(c3ccccc3)N12` (configuration not stated) is 78 °C; for `O=C1CCCC1C1(O)C(=O)Nc2ccccc21` (configuration not stated) it is 187 °C. The figure for `Nc1cnn(-c2ccccc2)c(=O)c1Br` is 224 °C. In the case of `Cc1c(F)ccc(C(=O)Cl)c1F`, the melting point was determined as 37 °C. The figure for `c1cc(OCC2CO2)cc(OCC2CO2)c1` (configuration not stated) is 42.5 °C; for `CC(C)(C)N(NC(=O)c1ccccc1)C(=O)c1ccccc1F` it is 184 °C; for `C#CCOc1ccc(Cc2ccc(O)cc2)cc1` it is 60 °C. Compound `Cn1ncc2c(Cl)ncnc21` registered a melting point of 97 to 100 °C.

`O=C(O)c1cc2cc(OCc3ccccc3)ccc2[nH]1` had a melting point of 197 °C. Compound `COc1ccc(-c2nnc3n2NC(c2ccccc2OC)S3)cc1` (configuration not stated) showed a melting point of 166 °C. Compound `CC1=NN(CN2CCCCC2)C(=O)/C1=N\Nc1ccc(Cl)cc1Cl` came in with a melting point of 122 to 124 °C. `O=C(NC(Cc1ccco1)C(=O)O)OCC1c2ccccc2-c2ccccc21` (configuration not stated) displayed a melting point of 130 °C. For the compound `CC(NC(=O)C(F)(F)C(F)(F)C(F)(F)C(F)(F)C(F)(F)C(F)(F)C(F)(F)C(F)(F)F)c1ccccc1` (configuration not stated), the melting point was determined as 100 °C. As to `O=C(C1=NOC2C(=O)N(c3cccc([N+](=O)[O-])c3)C(=O)C12)c1cccs1` (configuration not stated), the melting point worked out at 164 °C. As for `N=C1NC(=O)C(=NNc2ccccc2[N+](=O)[O-])S1`, the melting point came out at 274 °C.

The values are drawn from a melting point compilation (Tetko et al.).
